Reference: ChEMBL document CHEMBL1137126, “Aza-boronic acids as non-beta-lactam inhibitors of AmpC-beta-lactamase” (Bioorg Med Chem Lett, 2004)
≈ marks a conversion by molar mass, not a printed value.

How the values were obtained:
Beta-lactamase = Beta-lactamase (Escherichia coli K-12, UniProt P00811); assay: Apparent inhibition constant against Escherichia coli AmpC beta-lactamase
Escherichia coli [1] = assay: Minimum inhibitory concentration of compound against Escherichia coli K12AmpC-Ent
Enterobacter cloacae = assay: Minimum inhibitory concentration of compound against Enterobacter cloacae derepressed 12991 ED; type: functional
Escherichia coli [2] = assay: Minimum inhibitory concentration of compound against Escherichia coli derepressed
Citrobacter freundii = assay: Minimum inhibitory concentration of compound against Citrobacter freundii derepressed 91/98-2; type: functional
Pseudomonas aeruginosa = assay: Minimum inhibitory concentration of compound against Pseudomonas aeruginosa derepressed 88/98; type: functional

Beta-lactamase, sequence (P00811 whole entry): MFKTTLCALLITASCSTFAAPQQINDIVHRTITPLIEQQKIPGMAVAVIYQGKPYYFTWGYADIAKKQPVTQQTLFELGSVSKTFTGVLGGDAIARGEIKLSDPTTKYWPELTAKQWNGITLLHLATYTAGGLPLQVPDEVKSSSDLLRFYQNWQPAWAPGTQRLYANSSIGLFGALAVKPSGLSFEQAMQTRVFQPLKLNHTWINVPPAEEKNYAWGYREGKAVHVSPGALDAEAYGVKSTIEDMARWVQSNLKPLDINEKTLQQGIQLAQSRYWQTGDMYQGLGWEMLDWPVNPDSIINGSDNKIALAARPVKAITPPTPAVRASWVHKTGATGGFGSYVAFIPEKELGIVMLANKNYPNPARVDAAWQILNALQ

Ki (Beta-lactamase)	SMILES	further results
700 nM	OB(O)c1cccc(/N=N/c2ccc(O)cc2)c1	–
1800 nM	OB(O)c1cccc(/N=N/c2ccc(/N=N/c3c(O)ccc4ccccc34)cc2O)c1	–
450 nM	OB(O)c1cccc(/N=N/c2c(O)cc(O)c3ccccc23)c1	–
3000 nM	OB(O)c1cccc(/N=N/c2cc(Cl)c(O)c(Cl)c2)c1	–
3500 nM	OB(O)c1cccc(/N=N/c2ccccc2O)c1	–
700 nM	OB(O)c1cccc(/N=N/c2ccc(/N=N/c3c(O)cc(O)c4ccccc34)cc2O)c1	–
1500 nM	O=[N+]([O-])c1cccc(/N=N/c2cccc(B(O)O)c2)c1O	–
300 nM	OB(O)c1cccc(/N=N/c2c(O)ccc3ccccc23)c1	–
2700 nM	Nc1cc(B(O)O)ccc1/N=N/c1cccc(B(O)O)c1	–
2000 nM	O=S(=O)(O)c1cc(S(=O)(=O)c2cccc(/N=N/c3cccc(B(O)O)c3)c2)cs1	–
900 nM	OB(O)c1cccc(/N=N/c2ccc(O)c3ccccc23)c1	–
5000 nM	O=S(=O)(O)c1cc(/N=N/c2cccc(B(O)O)c2)c(O)c2ccccc12	–
1000 nM	Cc1noc(C)c1/N=N/c1cccc(B(O)O)c1	–
3000 nM	OB(O)c1cc(/N=N/c2ccc(Br)cc2)ccc1O	–
–	CC(C)(O/N=C(\C(=O)N[C@@H]1C(=O)N2C(C(=O)[O-])=C(C[n+]3ccccc3)CS[C@H]12)c1csc(N)n1)C(=O)O [CEFTAZIDIME]	MIC (Escherichia coli [1]): 64 µg/mL (≈ 117 µM); MIC (Enterobacter cloacae): 256 µg/mL (≈ 468 µM); MIC (Escherichia coli [2]): 128 µg/mL (≈ 234 µM); MIC (Citrobacter freundii): 64 µg/mL (≈ 117 µM); MIC (Pseudomonas aeruginosa): 128 µg/mL (≈ 234 µM)
